Drawing on the supplement of paper PMC10307832, this text covers relative viability for one cell line.

Experiment in all cases: relative viability (nuclei count vs DMSO), 5 days (fraction); higher = more cells survive
Compound in assay [1]: O=C(C[C@H]1NCCC[C@@H]1O)Cn1cnc2cc(Br)c(Cl)cc2c1=O (racemic) [Halofuginone] + CC1(C)CCC(c2ccc(Cl)cc2)=C(CN2CCN(c3ccc(C(=O)NS(=O)(=O)c4ccc(N[C@H](CCN5CCOCC5)CSc5ccccc5)c(S(=O)(=O)C(F)(F)F)c4)cc3)CC2)C1 [Navitoclax] (partner 0.5 µM)
The method in brief: (§1)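 Relative viability divides the nuclei count in treated wells by that in vehicle wells. Lung cancer cell lines were seeded in 1536-well plates, dosed by pin tool the next day, and fixed and stained after 5 days in one step with final 0.05% Triton X-100, 1% formaldehyde and 1 ug/ml Hoechst. Dosing was a single drug or a fixed anchor-drug dose plus five library-drug doses (not always all listed) in √10 steps, and values are medians of duplicate plates imaged at 4×.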

Compound in assay [2]: O=C(C[C@H]1NCCC[C@@H]1O)Cn1cnc2cc(Br)c(Cl)cc2c1=O (racemic) [Halofuginone] + CC(=O)c1c(C)c2cnc(Nc3ccc(N4CCNCC4)cn3)nc2n(C2CCCC2)c1=O [Palbociclib] (partner 0.5 µM)
The essentials:
as §1

Compound in assay [3]: O=C(C[C@H]1NCCC[C@@H]1O)Cn1cnc2cc(Br)c(Cl)cc2c1=O (racemic) [Halofuginone] + C[C@]1(O)C[C@@H](c2nc(-c3ccc4ccc(-c5ccccc5)nc4c3)c3c(N)nccn32)C1 [Linsitinib] (partner 1 µM)
The essentials: as §1

Compound in assay [4]: Nc1ncn([C@H]2C[C@H](O)[C@@H](CO)O2)c(=O)n1 [Decitabine] + COc1cc2c(Oc3ccc(NC(=O)C4(C(=O)Nc5ccc(F)cc5)CC4)cc3F)ccnc2cc1OCCCN1CCOCC1 [Foretinib] (partner 0.25 µM)
The method in brief:
as §1

Regarding UMC-11, the relative viability came to 0.325 in assay [1] (first compound 0.001 µM); 0.314 in assay [1] (first compound 0.003162 µM); 0.324 in assay [1] (first compound 0.01 µM); 0.26 in assay [1] (first compound 0.03162 µM); 0.138 in assay [1] (first compound 0.1 µM); 0.359 in assay [2] (first compound 0.001 µM). Moreover, the relative viability in assay [2] (first compound 0.003162 µM) was 0.306; in assay [2] (first compound 0.01 µM), 0.322; in assay [2] (first compound 0.03162 µM), 0.316; in assay [2] (first compound 0.1 µM), 0.279; in assay [3] (first compound 0.001 µM), 1.09; in assay [3] (first compound 0.003162 µM) it was 0.99. In addition, the relative viability in assay [3] (first compound 0.01 µM) was determined as 1.03; in assay [3] (first compound 0.03162 µM), 0.963; in assay [3] (first compound 0.1 µM), 0.752; in assay [4] (first compound 0.04 µM), 0.906; in assay [4] (first compound 0.1265 µM) it was 0.79; in assay [4] (first compound 0.4 µM), 0.511. Besides, the results for the relative viability in assay [4] (first compound 1.265 µM) and in assay [4] (first compound 4 µM) were 0.399 and 0.372, respectively.
